In article PMC5979471, “Telomerase Inhibition by a New Synthetic Derivative of the Aporphine Alkaloid Boldine” (International Journal of Molecular Sciences, 2018) one finds IC50 data, which are given here for 2 compounds.

Where a name gives a salt, the structure may show the parent alone.

In the experiment the target is T1, telomerase (catalytic subunit TERT) (Homo sapiens, UniProt O14746).
T1 construct: with telomerase RNA component TER (endogenous telomerase ribonucleoprotein in MCF7 lysate)
The experiment can be described thus: q-TRAP-ligand assay in MCF7 cell lysate, compound added before telomere elongation. In kind it is biochemical.

T1 sequence (O14746 whole entry): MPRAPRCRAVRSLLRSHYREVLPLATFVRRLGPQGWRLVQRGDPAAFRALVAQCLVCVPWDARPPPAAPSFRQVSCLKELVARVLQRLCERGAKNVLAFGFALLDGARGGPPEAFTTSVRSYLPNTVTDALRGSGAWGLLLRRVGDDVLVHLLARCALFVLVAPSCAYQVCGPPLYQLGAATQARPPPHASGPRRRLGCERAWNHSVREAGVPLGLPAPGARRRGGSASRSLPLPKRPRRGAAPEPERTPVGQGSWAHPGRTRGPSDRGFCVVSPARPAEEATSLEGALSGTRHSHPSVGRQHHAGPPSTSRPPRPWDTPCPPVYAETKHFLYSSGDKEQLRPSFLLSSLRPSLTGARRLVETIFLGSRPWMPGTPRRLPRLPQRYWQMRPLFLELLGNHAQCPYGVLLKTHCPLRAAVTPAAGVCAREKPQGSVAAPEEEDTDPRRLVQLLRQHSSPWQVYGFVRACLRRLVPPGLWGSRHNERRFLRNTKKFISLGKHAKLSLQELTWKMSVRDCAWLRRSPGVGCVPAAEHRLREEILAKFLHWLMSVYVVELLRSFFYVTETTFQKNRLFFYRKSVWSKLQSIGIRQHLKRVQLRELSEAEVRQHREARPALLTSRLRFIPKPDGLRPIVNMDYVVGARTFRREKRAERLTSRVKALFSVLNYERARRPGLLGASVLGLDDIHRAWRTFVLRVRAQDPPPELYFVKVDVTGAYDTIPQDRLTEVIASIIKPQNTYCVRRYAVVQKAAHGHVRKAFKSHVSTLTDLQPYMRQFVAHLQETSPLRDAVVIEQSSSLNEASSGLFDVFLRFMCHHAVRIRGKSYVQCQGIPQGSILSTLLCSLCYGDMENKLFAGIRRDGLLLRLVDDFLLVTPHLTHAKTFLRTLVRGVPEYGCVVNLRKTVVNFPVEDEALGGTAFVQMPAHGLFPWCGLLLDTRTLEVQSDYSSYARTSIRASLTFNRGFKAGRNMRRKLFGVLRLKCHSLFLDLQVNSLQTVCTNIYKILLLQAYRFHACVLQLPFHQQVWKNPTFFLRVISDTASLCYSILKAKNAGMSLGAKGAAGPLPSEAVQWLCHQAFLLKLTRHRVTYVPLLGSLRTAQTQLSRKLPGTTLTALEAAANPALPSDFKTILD

As usually defined, the IC50 is the concentration that inhibits the measured activity by half. A high value points to weaker potency. Turning to `COc1cc2c(cc1O)C[C@H]1c3c(cc(O)c(OC)c3-2)CCN1C` [Boldine, 1,10-dimethoxy-2,9-dihydroxyaporphine], 68 ± 2.5 µM corresponded to half-maximal inhibition (IC50).

On to `COc1cc2c(ccc3c(CCN(C)Cc4ccccc4)cc(O)c(OC)c32)cc1O` [BSB, N-benzylsecoboldine hydrochloride], for which inhibition was half-maximal at 0.17 ± 0.1 µM (IC50). Against the preceding compound, the IC50 is about 400-fold lower.
